Laboratory results published in US10144732B2 (BIOGEN MA INC., priority 2014, dated 2018).
Where a name gives a salt, the structure may show the parent alone.

Target: T1, Human ATX protein (Homo sapiens, UniProt Q13822)
T1 construct: made in house
Assay: ATX biochemical assay (FRET, FS-3 substrate)
Conditions: FRET assay, FS-3 2 μM, ATX 1.0 μg/mL, 30 minutes preincubation, 2 hours reaction at room temperature; read-out: IC50
Description: ATX (Autotaxin) is a 125 KDa glycoprotein with lysophospholipase D (LPLD) activity that generates the bioactive lipid lysophosphatidic acid (LPA) from lysophosphatidylcholine (LPC). The ATX biochemical assay utilizes a FRET (fluorescence resonance energy transfer) technology platform. The fluorescence signal of FRET substrate FS-3 is quenched due to intra-molecular FRET of a fluorophore to a non-fluorescing quencher (Ferguson, C. G., et al., Org Lett. 2006 May 11; 8(10): 2023-2026, which is incorporated by reference in its entirety). ATX catalyzes the hydrolysis of the substrate which separates the dabsyl quencher from the fluorescein reporter, which becomes fluorescent. The reaction is monitored by a SpectraMax M5 (Molecular Devices, Sunnyvale, Calif.) with at excitation wavelength 485 nm and emission wavelength […].
Fatty acid free-BSA (Sigma A8806): 10 mg/mL in H2O, stored at 4° C.
2×ATX assay buffer: 100 mM Tris, 280 mM NaCl, 10 mM KCl, 2 mM CaCl2, 2 mM MgCl2, pH 7.4.
Human ATX protein: expressed and purified in house. Stored at −80° C.
Substrate FS-3 (Echelon, L-2000): 100 μg in 77.74 μL H2O (1 mM stock), stored at −20° C.
384-well flat bottom plates—Corning #3575.
Compound dilution—All compounds were provided at 10 mM in 100% DMSO. In the first well, 2 μL of 10 mM compound was added to 78 μL of DMSO (1:40 dilution). In subsequent wells 3-fold dilution (total 10 dilutions) were performed.
1×ATX assay buffer was made up with a final concentration of 1 mg/mL fatty acid free-BSA using 2×ATX assay buffer, 10 mg/ml fatty acid free-BSA and ddH2O.
[…]. The final concentration of ATX in the reaction as 1.0 μg/mL.
2 μL per well of compounds was transferred to provide the desired concentration. The plate was centrifuged, then incubated at room temperature for 30 minutes on the shaker.
FS-3 was diluted with 1×ATX assay buffer to a concentration of FS-3 of 10 μM (5×). Then, 10 μL was added per well to the assay plate. The final concentration of FS-3 in the reaction was 2 μM. The plate was centrifuged. The plate was kept shaking at room temperature for 2 hours. Because FS-3 substrate is light sensitive, plates were kept covered and protected from light.
Fluorescence was measured using SpectraMax M5 (excitation at 485 nm/emission at 538 nm, top read).

| SMILES | IC50 [nM] |
| --- | --- |
| CCOC(=O)C1CCC(CC(=O)N2CCc3c(C(F)(F)F)nn(Cc4ccc(C(F)(F)F)cc4)c3C2)CC1 (stereo not drawn) [Example 1-10, Ethyl 4-(2-oxo-2-(3-(trifluoromethyl)-1-(4-(trifluoromethyl)benzyl)-4,5-dihydro-1H-pyrazolo[3,4-c]pyridin-6(7H)-yl)ethyl)cyclohexanecarboxylate] | ≤ 100 |
| O=C(O)C1CC(CC(=O)N2CCc3c(C(F)(F)F)nn(Cc4ccc(F)cc4)c3C2)C1 (mixture of isomers) [Example 6-9, 3-(2-(1-(4-Fluorobenzyl)-3-(trifluoromethyl)-4,5-dihydro-1H-pyrazolo[3,4-c]pyridin-6(7H)-yl)-2-oxoethyl)cyclobutanecarboxylic acid] | ≤ 100 |
| CC(C)(C)OC(=O)N1CCC(CC(=O)N2CCc3c(C(F)(F)F)nn(Cc4ccc(Cl)cc4F)c3C2)CC1 [Example 8-2, tert-Butyl 4-(2-(1-(4-chloro-2-fluorobenzyl)-3-(trifluoromethyl)-4,5-dihydro-1H-pyrazolo[3,4-c]pyridin-6(7H)-yl)-2-oxoethyl)piperidine-1-carboxylate] | ≤ 100 |
| CCOC(=O)[C@H]1CC[C@H](CC(=O)N2CCc3c(C#N)nn(Cc4ccc(F)cc4)c3C2)CC1 [Example 1-43, trans-Ethyl 4-(2-(3-cyano-1-(4-fluorobenzyl)-4,5-dihydro-1H-pyrazolo[3,4-c]pyridin-6(7H)-yl)-2-oxoethyl)cyclohexanecarboxylate] | ≤ 100 |
| O=C(Cc1ccncc1)N1CCc2c(C(F)(F)F)nn(Cc3ccc(Cl)cc3F)c2C1 [Example 1-7, 1-(1-(4-Chloro-2-fluorobenzyl)-3-(trifluoromethyl)-4,5-dihydro-1H-pyrazolo[3,4-c]pyridin-6(7H)-yl)-2-(pyridin-4-yl)ethanone] | > 10000 |
| O=C(C[C@H]1CC[C@H](C(=O)O)CC1)N1CCc2c(C(F)(F)F)nn(Cc3ccc(Cl)s3)c2C1 [Example 5-17, trans-4-(2-(1-((5-chlorothiophen-2-yl)methyl)-3-(trifluoromethyl)-4,5-dihydro-1H-pyrazolo[3,4-c]pyridin-6(7H)-yl)-2-oxoethyl)cyclohexanecarboxylic acid] | ≤ 100 |
| CCOc1nn(Cc2ccc(F)cc2)c2c1CCN(C(=O)C[C@H]1CC[C@H](C(=O)O)CC1)C2 [Example 5-42, trans-4-(2-(3-Ethoxy-1-(4-fluorobenzyl)-4,5-dihydro-1H-pyrazolo[3,4-c]pyridin-6(7H)-yl)-2-oxoethyl)cyclohexanecarboxylic acid] | ≤ 100 |
| O=C(CC1CCC(O)CC1)N1CCc2c(C(F)(F)F)nn(Cc3ccc(Cl)cc3F)c2C1 (stereo not drawn) [Example 1-15, 1-(1-(4-Chloro-2-fluorobenzyl)-3-(trifluoromethyl)-4,5-dihydro-1H-pyrazolo[3,4-c]pyridin-6(7H)-yl)-2-(4-hydroxycyclohexyl)ethanone] | ≤ 100 |
| CCOC(=O)C1CCC(CC(=O)N2CCc3c(C(F)(F)F)nn(Cc4ccccc4F)c3C2)CC1 (stereo not drawn) [Example 1-19, Ethyl 4-(2-(1-(2-fluorobenzyl)-3-(trifluoromethyl)-4,5-dihydro-1H-pyrazolo[3,4-c]pyridin-6(7H)-yl)-2-oxoethyl)cyclohexanecarboxylate] | ≤ 100 |
| COC(=O)C1CCC(C(=O)N2CCc3c(C(F)(F)F)nn(Cc4ccc(F)cc4)c3C2)CC1 (stereo not drawn) [Example 1-22, Methyl 4-(1-(4-fluorobenzyl)-3-(trifluoromethyl)-4,5,6,7-tetrahydro-1H-pyrazolo[3,4-c]pyridine-6-carbonyl)cyclohexanecarboxylate] | > 10000 |
| O=C(O)C1CCC(CC(=O)N2CCc3cnn(Cc4ccc(F)cc4)c3C2)CC1 (single isomer, unassigned) [Example 7-15, 4-(2-(1-(4-Fluorobenzyl)-4,5-dihydro-1H-pyrazolo[3,4-c]pyridin-6(7H)-yl)-2-oxoethyl)cyclohexanecarboxylic acid] | ≤ 100 |
| CC1(C)C(CC(=O)N2CCc3c(C(F)(F)F)nn(Cc4ccc(Cl)cc4F)c3C2)CC1C(=O)O (mixture of isomers) [Example 6-14, 3-(2-(1-(4-Chloro-2-fluorobenzyl)-3-(trifluoromethyl)-4,5-dihydro-1H-pyrazolo[3,4-c]pyridin-6(7H)-yl)-2-oxoethyl)-2,2-dimethylcyclobutanecarboxylic acid] | ≤ 100 |
| CC(C)(C)OC(=O)N1CC(CC(=O)N2CCc3c(C(F)(F)F)nn(Cc4ccc(Cl)cc4F)c3C2)C[C@@H]1C(=O)O (stereo partly drawn) [Example 5-56, (2R)-1-(tert-Butoxycarbonyl)-4-(2-(1-(4-chloro-2-fluorobenzyl)-3-(trifluoromethyl)-4,5-dihydro-1H-pyrazolo[3,4-c]pyridin-6(7H)-yl)-2-oxoethyl)pyrrolidine-2-carboxylic acid] | ≤ 100 |
| CC1(C(=O)O)CCC(CC(=O)N2CCc3c(C(F)(F)F)nn(Cc4ccc(F)cc4)c3C2)CC1 (stereo not drawn) [Example 6-11, 4-(2-(1-(4-Fluorobenzyl)-3-(trifluoromethyl)-4,5-dihydro-1H-pyrazolo[3,4-c]pyridin-6(7H)-yl)-2-oxoethyl)-1-methylcyclohexanecarboxylic acid] | ≤ 100 |
| O=C(O)C1CCC(CC(=O)N2CCc3c(C(F)(F)F)nn(Cc4ccc(F)cc4)c3C2)C1 (mixture of isomers) [Example 6-7, 3-(2-(1-(4-Fluorobenzyl)-3-(trifluoromethyl)-4,5-dihydro-1H-pyrazolo[3,4-c]pyridin-6(7H)-yl)-2-oxoethyl)cyclopentanecarboxylic acid] | ≤ 100 |

The remaining lines, values ahead:

| IC50 [nM] | SMILES |
| --- | --- |
| ≤ 100 | O=C(CC1CCC(N2CCOCC2)CC1)N1CCc2c(C(F)(F)F)nn(Cc3ccc(F)cc3)c2C1 (stereo not drawn) [Example 22-10, 1-(1-(4-Fluorobenzyl)-3-(trifluoromethyl)-4,5-dihydro-1H-pyrazolo[3,4-c]pyridin-6(7H)-yl)-2-(4-morpholinocyclohexyl)ethanone TFA salt] |
| ≤ 100 | CN1CCC(CC(=O)N2CCc3c(C(F)(F)F)nn(Cc4ccc(Cl)cc4F)c3C2)CC1C(F)(F)F (stereo not drawn) [Example 10-4, 1-(1-(4-Chloro-2-fluorobenzyl)-3-(trifluoromethyl)-4,5-dihydro-1H-pyrazolo[3,4-c]pyridin-6(7H)-yl)-2-(1-methyl-2-(trifluoromethyl)piperidin-4-yl)ethanone TFA salt] |
| ≤ 100 | O=C(CC1CNCCO1)N1CCc2c(C(F)(F)F)nn(Cc3ccc(F)cc3)c2C1 (stereo not drawn) [Example 9-16, 1-(1-(4-Fluorobenzyl)-3-(trifluoromethyl)-4,5-dihydro-1H-pyrazolo[3,4-c]pyridin-6(7H)-yl)-2-(morpholin-2-yl)ethanone TFA salt] |
| ≤ 100 | O=C(C[C@H]1CC[C@H](N2CC(F)(F)C2)CC1)N1CCc2c(C(F)(F)F)nn(Cc3ccc(F)cc3)c2C1 [Example 22-8, 2-(trans-4-(3,3-difluoroazetidin-1-yl)cyclohexyl)-1-(1-(4-fluorobenzyl)-3-(trifluoromethyl)-4,5-dihydro-1H-pyrazolo[3,4-c]pyridin-6(7H)-yl)ethanone TFA salt] |
| ≤ 100 | N#CC1CCN(CC(=O)N2CCc3c(C(F)(F)F)nn(Cc4ccc(F)cc4)c3C2)C1 (stereo not drawn) [Example 12-11, 1-(2-(1-(4-Fluorobenzyl)-3-(trifluoromethyl)-4,5-dihydro-1H-pyrazolo[3,4-c]pyridin-6(7H)-yl)-2-oxoethyl)pyrrolidine-3-carbonitrile TFA salt] |
| ≤ 100 | N[C@H]1CC[C@H](CC(=O)N2CCc3c(C(F)(F)F)nn(Cc4ccc(F)cc4)c3C2)CC1 [Example 9-20, 2-(trans-4-Aminocyclohexyl)-1-(1-(4-fluorobenzyl)-3-(trifluoromethyl)-4,5-dihydro-1H-pyrazolo[3,4-c]pyridin-6(7H)-yl)ethanone TFA salt] |
| ≤ 100 | O=C(CC1CCC(N2CCCC2)CC1)N1CCc2c(C(F)(F)F)nn(Cc3ccc(F)cc3)c2C1 (stereo not drawn) [Example 22-9, 1-(1-(4-Fluorobenzyl)-3-(trifluoromethyl)-4,5-dihydro-1H-pyrazolo[3,4-c]pyridin-6(7H)-yl)-2-(4-(pyrrolidin-1-yl)cyclohexyl)ethanone TFA salt] |
| ≤ 100 | CC(C)N1CCC(CC(=O)N2CCc3c(C(F)(F)F)nn(Cc4ccc(F)cc4)c3C2)C1 (stereo not drawn) [Example 10-6, 1-(1-(4-Fluorobenzyl)-3-(trifluoromethyl)-4,5-dihydro-1H-pyrazolo[3,4-c]pyridin-6(7H)-yl)-2-(1-isopropylpyrrolidin-3-yl)ethanone] |
| 100 to 250 | NC12CCC(CC(=O)N3CCc4c(C(F)(F)F)nn(Cc5ccc(F)cc5)c4C3)(CC1)CC2 [Example 9-10, 2-(4-Aminobicyclo[2.2.2]octan-1-yl)-1-(1-(4-fluorobenzyl)-3-(trifluoromethyl)-4,5-dihydro-1H-pyrazolo[3,4-c]pyridin-6(7H)-yl)ethanone TFA salt] |
